In PMC8234231, “In Vitro Inhibition of Renal OCT2 and MATE1 Secretion by Antiemetic Drugs” (International Journal of Molecular Sciences, 2021):

Experiments:
[1] = tested on: empty vector (EV) HEK293 cells; assay: Concentration-dependent uptake of ASP+ in empty vector HEK293 cells; format: cell-based, human; settings: EV HEK293, 0–100 μM, 1 min
Experimental: Figure 2 Time and Concentration-Dependent Accumulation of ASP^+ in HEK293 Cells Overexpressing OCT2 or MATE1. HEK cells expressing empty vector (EV), OCT2, or MATE1 were incubated for different time periods (0.5–20 min, 10 μM ASP^+, 37 °C) to evaluate time-dependent uptake (A) or with increasing concentrations of ASP^+ (0–100 μM, 1 min 37 °C) for concentration-dependent uptake (B) on a shaker. Specific transport uptake is shown in dashed lines. Intracellular fluorescence was quantified and normalized to protein concentration. Data are presented as mean ± SE (n = 3).
OCT2- and MATE1-overexpressing HEK293 cells were seeded in clear poly-^D-lysine-coated 24-well plates (Fisher Scientific, Hanover Park, IL, USA) and grown for 24 h until approximately 90% confluent. […]
GraphPad Prism v6 (GraphPad Software, La Jolla, CA, USA) was used for statistical analysis. Km and Vmax were calculated using nonlinear regression (Michaelis–Menten enzyme kinetics equation, (Y = Vmax × X/(Km + X), fit for least squares). Data with two variables were analyzed using a two-way ANOVA followed by a one-way ANOVA and/or Dunnett’s post-hoc test for multiple comparisons. IC50 values were calculated via a nonlinear regression to fit least squares. Differences were considered statistically significant at p < 0.05.

OCT2 and MATE1 = assay: Bidirectional transcellular flux of ASP+ in OCT2/MATE1 double-transfected MDCK cells; format: cell-based, human; settings: human, ASP+ 25 μM, read-out: B-to-A/A-to-B efflux ratio
Experimental: (§1) Figure 4 Transcellular Flux of ASP^+ in Control and OCT2/MATE1-Transfected MDCK cells. (A). Protein expression of OCT2 (~63 kDa,) and MATE1 (~54 kDa) in vector control MDCK cells (lanes 1–2) and OCT2/MATE1 double transfected (lanes 3–4). (B). Cells were incubated with ASP^+ (25 μM) in either apical or basolateral media for 120 min and fluorescence in apical or basolateral media was quantified (A-to-B: apical-to-basolateral; B-to-A: basolateral-to-apical). ^† p < 0.05 compared to A-to-B. ^‡ p < 0.05 compared to vector. (C). Cells were incubated with ASP^+ (25 μM) in basolateral media and positive control inhibitors in apical and basolateral media for 120 min. Fluorescence was measured in the apical chamber. (D). Intracellular fluorescence was quantified and normalized to protein concentration. Data are expressed as mean ± SE (n = 3). * p < 0.05 compared to no inhibitor. CIM–Cimetidine; PYR–Pyrimethamine; OLA–Olanzapine.
(§2) Cells were incubated with 5-HT3 antagonists in the apical chamber in HBSS pH 6.0 and 5-HT3 antagonists with ASP^+ (25 μM) in the basolateral chamber in HBSS pH 7.4 and incubated at 37 °C for 120 min. […]

human OCT2 and MATE1 = assay: as above; format: cell-based; settings: ASP+ 25 μM, 120 min
Experimental: as §1, §2

[2] = Bidirectional transcellular flux of ASP+ in control MDCK cells; format: cell-based, canine; settings: dog, ASP+ 25 μM, read-out: B-to-A transport relative to A-to-B transport
Experimental: as §1, §2

MATE1 = target: T1, MATE1 (Homo sapiens, UniProt Q96FL8); assay: Concentration-dependent uptake of ASP+ in MATE1-expressing HEK293 cells; format: cell-based
T1 construct: expressed in transfected cells; gift of Dr. Kathy Giacomini, UCSF
T1 sequence (Q96FL8 1-570): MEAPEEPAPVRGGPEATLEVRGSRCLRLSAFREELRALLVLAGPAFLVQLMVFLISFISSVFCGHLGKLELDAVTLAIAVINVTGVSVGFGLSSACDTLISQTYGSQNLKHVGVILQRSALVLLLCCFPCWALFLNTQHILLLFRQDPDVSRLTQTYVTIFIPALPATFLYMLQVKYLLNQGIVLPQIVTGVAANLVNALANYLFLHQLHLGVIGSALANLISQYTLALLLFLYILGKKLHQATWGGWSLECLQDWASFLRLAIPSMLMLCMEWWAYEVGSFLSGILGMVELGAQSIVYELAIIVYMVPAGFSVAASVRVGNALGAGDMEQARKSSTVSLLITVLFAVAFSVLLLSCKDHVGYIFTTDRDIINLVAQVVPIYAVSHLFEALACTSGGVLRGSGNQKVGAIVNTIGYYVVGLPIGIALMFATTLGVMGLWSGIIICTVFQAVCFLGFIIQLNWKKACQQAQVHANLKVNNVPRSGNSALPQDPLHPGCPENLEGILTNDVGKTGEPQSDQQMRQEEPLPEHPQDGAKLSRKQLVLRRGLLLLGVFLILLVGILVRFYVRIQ
Experimental: After washing once with prewarmed Hank’s Buffered Saline Solution (HBSS), cells were preincubated for 30 min at 37 °C with various 5-HT3 antagonists for OCT2 cells or in a 30 mM NH4Cl solution in HBSS at pH 6.5 for MATE1 cells for intracellular acidification. […] […] […] Media was removed and washed four times with ice-cold HBSS. Cells were lysed with 1% Triton X-100. […] Experiments were repeated three separate times, with three to four replicates in each experiment.
GraphPad Prism v6 (GraphPad Software, La Jolla, CA, USA) was used for statistical analysis.

MDCK monolayers = assay: Passive permeability of lucifer yellow across MDCK monolayers; format: in vitro ADME, canine; settings: lucifer yellow 20 μM, B-to-A, 1 h
Experimental: Both MDCK cell lines were seeded on 0.4 μm transwell inserts (VWR, Radnor, PA, USA) at a density of 2 × 10^5 cells/cm^2. […] The integrity of MDCK monolayers was verified by measuring transepithelial electrical resistance (TEER) >150 Ω*cm^2 using an epithelial voltohmmeter, EVOM^2 (World Precision Instruments, Sarasota, FL). Proper formation of tight junctions was also verified by measurement of passive permeability of lucifer yellow in the basolateral-to-apical (B-to-A) direction. Lucifer yellow (20 μM) was applied to the basolateral chamber for 1 h, and media were collected from the apical chamber.

Compound	Km [1] [µM]	Vmax of ASP+ uptake [1] [nmol/mg/min]	efflux ratio at 120 min, 25 μM (OCT2 and MATE1)	B-to-A transport relative to A-to-B transport (human OCT2 and MATE1)	efflux ratio at 90 min, 25 μM ([2]; 90 min)	efflux ratio at 120 min, 25 μM ([2]; 120 min)	Vmax of ASP+ uptake (MATE1; MATE1-expressing HEK293, 0–100 μM, 1 min) [nmol/mg/min]	Km at 1 min (MATE1; human, HEK293 cells overexpressing MATE1, pH 7.4, MATE1-expressing HEK293, 0–100 μM) [µM]	Average passive permeability (Papp) (MDCK monolayers) [cm/s]
CN(C)c1ccc(C=Cc2cc[n+](C)cc2)cc1.[I-] [ASP^+, 4-(4-(Dimethylamino)styryl)-N-methylpyridinium iodide]	37.3	1.9	2.7	up to 2.8 fold	1.3	1.7	3.4	8.2	–
Lucifer yellow	–	–	–	–	–	–	–	–	7e-07
